Assay results published in US20090222080A1, “MEDICAL STENT PROVIDED WITH INHIBITORS OF TUMOR NECROSIS FACTOR-ALPHA” (Picarus NV SA, priority 2005, published 2009).

Columns and labels:
ApoE*3-Leiden mice = experiment: mouse femoral artery cuff model of restenosis (neointima formation); assay type: in vivo; details: cuff around the femoral artery for 14 days, cuffs loaded with 1% (w/w) thalidomide, p=0.005
Description: (§1) For the mouse study, ApoE*3-Leiden mice and TNF knockout mice were used to determine the impact of TNF-alpha on restenosis development after cuff placement around the femoral artery for 14 days. In another ApoE*3-Leiden mice group the cuffs were loaded with 1% (w/w) thalidomide, a TNF biosynthesis inhibitor.

TNF protein = experiment: vascular levels of TNF protein after local thalidomide in the mouse cuff model; assay type: in vivo, mice; details: thalidomide administered locally (cuff)
Method: as §1
Furthermore, the vascular levels of TNF protein were decreased when thalidomide was administered locally.

With `O=C1CCC(N2C(=O)c3ccccc3C2=O)C(=O)N1` (centres unmarked) [thalidomide, 2-(2,6-dioxo-3-piperidinyl)-1H-isoindole-1,3(2H)-dione] the neointima formation (ApoE*3-Leiden mice) was “significantly less neointima formation” and the “vascular levels of TNF protein” value (TNF protein) was “decreased”.
